Data: patent publication US8198273B2, “Compounds and methods for kinase modulation, and indications therefor” (Plexxikon Inc., priority 2009, dated 2012)

Legend:
[1] = tested on: COLO205 colon adenocarcinoma cells (B-Raf V600E); test: COLO205 cell growth inhibition (ATPlite); format: cell-based; details: Homo sapiens, COLO 205, 72 h; COLO205, 3 days incubation
In short: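 ATPlite luminescence, taken as a cell-number measure, gave IC50 values after a 3-day 37° C, 5% CO2 incubation. Compounds were tested as 8-point threefold titrations, highest final concentration 10 μM, added to cells seeded the day before.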

B-Raf = B-Raf (Homo sapiens, UniProt P15056); test: B-Raf biochemical kinase inhibition (AlphaScreen, biotin-MEK1 substrate); details: 100 μM ATP
B-Raf, sequence (P15056 whole entry): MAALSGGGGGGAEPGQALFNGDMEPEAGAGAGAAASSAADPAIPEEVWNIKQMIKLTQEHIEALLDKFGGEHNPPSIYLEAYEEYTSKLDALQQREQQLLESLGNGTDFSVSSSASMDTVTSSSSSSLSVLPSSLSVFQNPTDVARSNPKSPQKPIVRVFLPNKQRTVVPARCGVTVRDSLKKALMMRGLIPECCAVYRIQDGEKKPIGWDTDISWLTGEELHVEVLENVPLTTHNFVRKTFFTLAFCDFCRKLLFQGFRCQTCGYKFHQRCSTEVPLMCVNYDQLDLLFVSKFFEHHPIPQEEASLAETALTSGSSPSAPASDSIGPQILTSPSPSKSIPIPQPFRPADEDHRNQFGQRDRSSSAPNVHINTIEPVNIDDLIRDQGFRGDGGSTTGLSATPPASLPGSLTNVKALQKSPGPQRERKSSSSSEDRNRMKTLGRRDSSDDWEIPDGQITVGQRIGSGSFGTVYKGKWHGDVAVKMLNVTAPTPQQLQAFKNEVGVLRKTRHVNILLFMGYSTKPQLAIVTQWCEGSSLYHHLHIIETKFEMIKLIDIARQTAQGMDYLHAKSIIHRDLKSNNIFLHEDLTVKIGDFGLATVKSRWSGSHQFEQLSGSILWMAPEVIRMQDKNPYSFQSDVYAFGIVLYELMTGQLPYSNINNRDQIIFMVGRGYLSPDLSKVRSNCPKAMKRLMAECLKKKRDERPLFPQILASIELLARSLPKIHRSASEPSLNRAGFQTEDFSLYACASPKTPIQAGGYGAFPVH
In short: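 Serial 1:3 dilutions of compound (0.1 mM DMSO stock, eight points) were added first, then ATP to start the reaction at 100 μM final.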

CYP1A2 = biological target: T1, CYP1A2 (Homo sapiens, UniProt P05177); test: CYP1A2 inhibition (fluorescent substrate); format: in vitro ADME; details: CYP1A2, CEC substrate; read-out: Cyp IC50 1A2
T1 sequence (P05177 1-516): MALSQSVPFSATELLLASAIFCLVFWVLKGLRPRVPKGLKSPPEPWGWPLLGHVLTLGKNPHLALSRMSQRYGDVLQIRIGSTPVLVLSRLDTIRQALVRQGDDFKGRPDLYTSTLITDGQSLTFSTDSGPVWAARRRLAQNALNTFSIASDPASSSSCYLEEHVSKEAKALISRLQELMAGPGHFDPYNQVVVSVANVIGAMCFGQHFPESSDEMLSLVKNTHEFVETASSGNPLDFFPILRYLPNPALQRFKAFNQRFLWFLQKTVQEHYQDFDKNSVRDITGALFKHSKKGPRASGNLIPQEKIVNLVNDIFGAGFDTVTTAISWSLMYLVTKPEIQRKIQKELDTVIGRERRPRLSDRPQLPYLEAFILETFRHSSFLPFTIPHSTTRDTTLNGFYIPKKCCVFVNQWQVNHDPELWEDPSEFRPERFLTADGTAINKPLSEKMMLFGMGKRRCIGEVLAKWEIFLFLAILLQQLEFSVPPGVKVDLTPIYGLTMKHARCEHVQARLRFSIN
Experimental: (§1) CYP (Cytochrome P450) enzymes are the major drug metabolizing enzymes present in the liver. The inhibition of CYP enzyme activity (IC50) for each of CYP1A2, CYP2C19, CYP2C9, CYP2D6, CYP3A4(BFC) and CYP3A4(BQ) is determined for compounds, where inhibition of metabolism of a known substrate leads to a decrease in the fluorescence of the metabolized product. The fluorescence of the product is monitored as a function of compound concentration.
(§2) Compounds are dissolved in dimethyl sulfoxide to a concentration of 100 mM. These are diluted 1 μL into 82 μL of acetonitrile. […] These are then serially diluted 1:1 (160 μL to 160 μL co-factor mix) for a total of 10 points. A 10 μL aliquot of this final mixture is dispensed into 384 well assay plates and incubated for 10 minutes at 37° C. […] Assay plates are incubated at 37° C. […] The signal versus compound concentration is used to determine the IC50. The enzymes and substrates for this assay are obtained from BD Biosciences.

CYP2C19 = CYP2C19 (Homo sapiens, UniProt P33261); test: CYP2C19 inhibition (fluorescent substrate); format: in vitro ADME; details: CYP2C19, CEC substrate; read-out: Cyp IC50 2C19
CYP2C19, sequence (P33261 whole entry): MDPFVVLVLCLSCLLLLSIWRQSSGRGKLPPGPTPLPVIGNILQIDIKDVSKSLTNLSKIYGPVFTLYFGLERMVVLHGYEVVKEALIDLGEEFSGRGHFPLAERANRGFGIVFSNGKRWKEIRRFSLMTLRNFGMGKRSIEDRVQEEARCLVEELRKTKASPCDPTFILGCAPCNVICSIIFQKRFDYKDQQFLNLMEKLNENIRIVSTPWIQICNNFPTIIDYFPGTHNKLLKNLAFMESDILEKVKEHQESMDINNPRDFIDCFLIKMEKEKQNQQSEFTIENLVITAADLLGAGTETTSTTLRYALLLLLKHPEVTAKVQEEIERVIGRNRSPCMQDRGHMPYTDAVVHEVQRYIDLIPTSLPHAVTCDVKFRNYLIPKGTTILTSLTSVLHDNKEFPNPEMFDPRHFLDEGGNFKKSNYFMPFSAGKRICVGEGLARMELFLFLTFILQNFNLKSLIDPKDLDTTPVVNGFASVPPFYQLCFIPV
Experimental: as §1, §2

SMILES	IC50 [1]	IC50 (B-Raf)	IC50 (CYP1A2)	IC50 (CYP2C19)
N#Cc1cnc2[nH]cc(C(=O)c3cccc(NS(=O)(=O)c4ccccc4)c3F)c2c1 [P-2056, N-[3-(5-Cyano-1H-pyrrolo[2,3-b]pyridine-3-carbonyl)-2-fluoro-phenyl]-benzenesulfonamide]	< 5000 nM	< 100 nM	> 10 µM	> 10 µM
O=C(c1c(F)ccc(NS(=O)(=O)c2cc(F)ccc2F)c1F)c1c[nH]c2nccc(Cl)c12 [P-2018, N-[3-(4-Chloro-1H-pyrrolo[2,3-b]pyridine-3-carbonyl)-2,4-difluoro-phenyl]-2,5-difluoro-benzenesulfonamide]	< 5000 nM	< 10 nM	> 10 µM	> 10 µM
CCCS(=O)(=O)Nc1ccc(F)c(C(=O)c2c[nH]c3ncc(-c4cncnc4)cc23)c1F [P-2162, Propane-1-sulfonic acid [2,4-difluoro-3-(5-pyrimidin-5-yl-1H-pyrrolo[2,3-b]pyridine-3-carbonyl)-phenyl]-amide]	< 1000 nM	< 100 nM	< 5 µM	> 10 µM
N#Cc1cnc2[nH]cc(C(=O)c3c(F)ccc(NS(=O)(=O)c4ccccc4F)c3F)c2c1 [P-2011, N-[3-(5-Cyano-1H-pyrrolo[2,3-b]pyridine-3-carbonyl)-2,4-difluoro-phenyl]-2-fluoro-benzenesulfonamide]	< 1000 nM	< 100 nM	> 10 µM	> 10 µM
CCCS(=O)(=O)Nc1ccc(F)c(C(=O)c2c[nH]c3ncc(-c4ccc(Cl)nc4)cc23)c1F [P-2154, Propane-1-sulfonic acid {3-[5-(6-chloro-pyridin-3-yl)-1H-pyrrolo[2,3-b]pyridine-3-carbonyl]-2,4-difluoro-phenyl}-amide]	< 1000 nM	< 10 nM	> 10 µM	5 to 10 µM
COc1ccnc2[nH]cc(C(=O)c3c(F)ccc(NS(=O)(=O)c4ccccc4F)c3F)c12 [P-2021, N-[2,4-Difluoro-3-(4-methoxy-1H-pyrrolo[2,3-b]pyridine-3-carbonyl)-phenyl]-2-fluoro-benzenesulfonamide]	< 5000 nM	< 100 nM	> 10 µM	> 10 µM
O=C(c1c(F)ccc(NS(=O)(=O)c2c(F)cccc2F)c1F)c1c[nH]c2ncc(Cl)cc12 [P-2003, N-[3-(5-Chloro-1H-pyrrolo[2,3-b]pyridine-3-carbonyl)-2,4-difluoro-phenyl]-2,6-difluoro-benzenesulfonamide]	< 5000 nM	< 100 nM	> 10 µM	> 10 µM
COc1ccnc2[nH]cc(C(=O)c3c(F)ccc(NS(=O)(=O)c4cc(F)ccc4F)c3F)c12 [P-2022, N-[2,4-Difluoro-3-(4-methoxy-1H-pyrrolo[2,3-b]pyridine-3-carbonyl)-phenyl]-2,5-difluoro-benzenesulfonamide]	< 5000 nM	< 100 nM	> 10 µM	> 10 µM
COc1cnc2[nH]cc(C(=O)c3c(F)ccc(NS(=O)(=O)c4ccccc4F)c3F)c2c1 [P-2009, N-[2,4-Difluoro-3-(5-methoxy-1H-pyrrolo[2,3-b]pyridine-3-carbonyl)-phenyl]-2-fluoro-benzenesulfonamide]	< 5000 nM	< 100 nM	> 10 µM	> 10 µM
Cc1cnc2[nH]cc(C(=O)c3c(F)ccc(NS(=O)(=O)c4cc(F)ccc4F)c3F)c2c1 [P-2015, N-[2,4-Difluoro-3-(5-methyl-1H-pyrrolo[2,3-b]pyridine-3-carbonyl)-phenyl]-2,5-difluoro-benzenesulfonamide]	< 1000 nM	< 100 nM	> 10 µM	5 to 10 µM

Continued, values first:

IC50 [1]	IC50 (B-Raf)	IC50 (CYP1A2)	IC50 (CYP2C19)	SMILES
< 1000 nM	< 10 nM	> 10 µM	> 10 µM	CCCS(=O)(=O)Nc1ccc(F)c(C(=O)c2c[nH]c3ncc(-c4ccc(C)nc4)cc23)c1F [P-2213, Propane-1-sulfonic acid {2,4-difluoro-3-[5-(6-methyl-pyridin-3-yl)-1H-pyrrolo[2,3-b]pyridine-3-carbonyl]-phenyl}-amide]
< 100 nM	< 10 nM	> 10 µM	< 5 µM	CCCS(=O)(=O)Nc1ccc(F)c(C(=O)c2c[nH]c3ncc(-c4ccc(C#CCN(CC)CC)nc4)cc23)c1F [P-2222, Propane-1-sulfonic acid (3-{5-[6-(3-diethylamino-prop-1-ynyl)-pyridin-3-yl]-1H-pyrrolo[2,3-b]pyridine-3-carbonyl}-2,4-difluoro-phenyl)-amide]
< 100 nM	< 10 nM	> 10 µM	5 to 10 µM	CCCS(=O)(=O)Nc1ccc(F)c(C(=O)c2c[nH]c3ncc(-c4ccc(OCCCN(C)C)nc4)cc23)c1F [P-2178, Propane-1-sulfonic acid (3-{5-[6-(3-dimethylamino-propoxy)-pyridin-3-yl]-1H-pyrrolo[2,3-b]pyridine-3-carbonyl}-2,4-difluoro-phenyl)-amide]
< 100 nM	< 10 nM	> 10 µM	< 5 µM	CCCS(=O)(=O)Nc1ccc(F)c(C(=O)c2c[nH]c3ncc(-c4ccc(OCCCN5CCOCC5)nc4)cc23)c1F [P-2236, Propane-1-sulfonic acid (2,4-difluoro-3-{5-[6-(3-morpholin-4-yl-propoxy)-pyridin-3-yl]-1H-pyrrolo[2,3-b]pyridine-3-carbonyl}-phenyl)-amide]
< 1000 nM	< 10 nM	> 10 µM	> 10 µM	CCCS(=O)(=O)Nc1ccc(F)c(C(=O)c2c[nH]c3ncc(-c4ccc(SC)nc4)cc23)c1F [P-2187, Propane-1-sulfonic acid {2,4-difluoro-3-[5-(6-methylsulfanyl-pyridin-3-yl)-1H-pyrrolo[2,3-b]pyridine-3-carbonyl]-phenyl}-amide]
< 1000 nM	< 100 nM	> 10 µM	< 5 µM	CCCS(=O)(=O)Nc1cccc(C(=O)c2c[nH]c3ncc(-c4cnc(OC)nc4)cc23)c1F [P-2407, Propane-1-sulfonic acid {2-fluoro-3-[5-(2-methoxy-pyrimidin-5-yl)-1H-pyrrolo[2,3-b]pyridine-3-carbonyl]-phenyl}-amide]
< 1000 nM	< 10 nM	> 10 µM	5 to 10 µM	CCCS(=O)(=O)Nc1ccc(F)c(C(=O)c2c[nH]c3ncc(-c4cnc(C)nc4)cc23)c1F [P-2211, Propane-1-sulfonic acid {2,4-difluoro-3-[5-(2-methyl-pyrimidin-5-yl)-1H-pyrrolo[2,3-b]pyridine-3-carbonyl]-phenyl}-amide]
< 1000 nM	< 10 nM	> 10 µM	5 to 10 µM	CCCS(=O)(=O)Nc1ccc(F)c(C(=O)c2c[nH]c3ncc(-c4cn[nH]c4)cc23)c1F [P-2174, Propane-1-sulfonic acid {2,4-difluoro-3-[5-(1H-pyrazol-4-yl)-1H-pyrrolo[2,3-b]pyridine-3-carbonyl]-phenyl}-amide]
< 1000 nM	< 10 nM	> 10 µM	5 to 10 µM	CCCS(=O)(=O)Nc1ccc(F)c(C(=O)c2c[nH]c3ncc(-c4ccc(N)nc4)cc23)c1F [P-2214, Propane-1-sulfonic acid {3-[5-(6-amino-pyridin-3-yl)-1H-pyrrolo[2,3-b]pyridine-3-carbonyl]-2,4-difluoro-phenyl}-amide]
< 100 nM	< 10 nM	> 10 µM	> 10 µM	CCCS(=O)(=O)Nc1ccc(F)c(C(=O)c2c[nH]c3ncc(-c4ccc(S(=O)(=O)N(C)C)cc4)cc23)c1F [P-2185, 4-{3-[2,6-Difluoro-3-(propane-1-sulfonylamino)-benzoyl]-1H-pyrrolo[2,3-b]pyridin-5-yl}-N,N-dimethyl-benzenesulfonamide]
< 100 nM	< 100 nM	> 10 µM	< 5 µM	CCCS(=O)(=O)Nc1ccc(F)c(C(=O)c2c[nH]c3ncc(-c4cnc(N5CCCC5)nc4)cc23)c1F [P-2219, Propane-1-sulfonic acid {2,4-difluoro-3-[5-(2-pyrrolidin-1-yl-pyrimidin-5-yl)-1H-pyrrolo[2,3-b]pyridine-3-carbonyl]-phenyl}-amide]
